Data as given in the supplement of paper PMC4862054.

Experiments:
Conditions in all cases: incubation time: 72 h
BT-474 [1] = assay: normalised response (% of control), CellTiter-Glo; higher = more viable cells (100 = DMSO, 0 = benzethonium chloride kill control)
Description: (§1)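 DSRT, 72 h incubation, CellTox Green / CellTiter-Glo readout. Signal is normalised to DMSO and benzethonium chloride controls. Value is the normalised response at dose 3.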

MFM-223 [2] = assay: as above
Description: as §1

HDQ-P1 [3] = assay: as above
Description: as §1

SK-BR-3 = assay: as above
Description: as §1

HCC1937 [4] = assay: as above
Description: as §1

HCC1599 [5] = assay: as above
Description: as §1

Hs578T [6] = assay: as above
Description: as §1

MCF-10A [7] = assay: as above
Description: as §1

BT-549 [8] = assay: as above
Description: as §1

MDA-MB-231 [9] = assay: as above
Description: as §1

HCC1143 [10] = assay: as above
Description: as §1

MDA-MB-436 [11] = assay: as above
Description: as §1

CAL-148 [12] = assay: as above
Description: as §1

CAL-51 [13] = assay: as above
Description: as §1

CAL-120 [14] = assay: as above
Description: as §1

DU-4475 [15] = assay: as above
Description: as §1

MDA-MB-453 [16] = assay: as above
Description: as §1

CAL-85-1 [17] = assay: as above
Description: as §1

MDA-MB-468 [18] = assay: as above
Description: as §1

BT-474 [19] = assay: normalised response (% of control), CellTox Green; higher = less cell death (100 = DMSO, 0 = benzethonium chloride kill control)
Outline: (§2)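 Breast cancer cell lines, seeded at 20 µl suspension per well, were incubated for 72 h in 384-well plates containing compound at 5 concentrations. These concentrations rose in 10-fold steps over a 10,000-fold range set for each compound. CellTox Green fluorescence (485/520 nm) was read, then CellTiter-Glo luminescence after 10 min at room temperature, and each plate was normalised to 0.1 % DMSO (100) and a positive kill control (0). Values are normalised signals, each at one concentration.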

MFM-223 [20] = assay: as above
Outline: as §2

HDQ-P1 [21] = assay: as above
Outline: as §2

HCC1937 [22] = assay: as above
Outline: as §2

HCC1599 [23] = assay: as above
Outline: as §2

MCF-10A [24] = assay: as above
Outline: as §2

BT-549 [25] = assay: as above
Outline: as §2

HCC1143 [26] = assay: as above
Outline: as §2

MDA-MB-436 [27] = assay: as above
Outline: as §2

CAL-148 [28] = assay: as above
Outline: as §2

CAL-51 [29] = assay: as above
Outline: as §2

CAL-120 [30] = assay: as above
Outline: as §2

DU-4475 [31] = assay: as above
Outline: as §2

MDA-MB-453 [32] = assay: as above
Outline: as §2

CAL-85-1 [33] = assay: as above
Outline: as §2

MDA-MB-468 [34] = assay: as above
Outline: as §2

MDA-MB-231 [35] = assay: as above
Outline: as §2

Hs578T [36] = assay: as above
Outline: as §2

Row | Structure (SMILES) | normalised response (BT-474 [1]) [%] | normalised response (MFM-223 [2]) [%] | normalised response (HDQ-P1 [3]) [%] | normalised response (SK-BR-3) [%] | normalised response (HCC1937 [4]) [%] | normalised response (HCC1599 [5]) [%] | normalised response (Hs578T [6]) [%] | normalised response (MCF-10A [7]) [%] | normalised response (BT-549 [8]) [%] | normalised response (MDA-MB-231 [9]) [%] | normalised response (HCC1143 [10]) [%] | normalised response (MDA-MB-436 [11]) [%] | normalised response (CAL-148 [12]) [%] | normalised response (CAL-51 [13]) [%] | normalised response (CAL-120 [14]) [%] | normalised response (DU-4475 [15]) [%] | normalised response (MDA-MB-453 [16]) [%] | normalised response (CAL-85-1 [17]) [%] | normalised response (MDA-MB-468 [18]) [%] | normalised response (BT-474 [19]) [%] | normalised response (MFM-223 [20]) [%] | normalised response (HDQ-P1 [21]) [%] | normalised response (HCC1937 [22]) [%] | normalised response (HCC1599 [23]) [%] | normalised response (MCF-10A [24]) [%] | normalised response (BT-549 [25]) [%] | normalised response (HCC1143 [26]) [%] | normalised response (MDA-MB-436 [27]) [%] | normalised response (CAL-148 [28]) [%] | normalised response (CAL-51 [29]) [%] | normalised response (CAL-120 [30]) [%] | normalised response (DU-4475 [31]) [%] | normalised response (MDA-MB-453 [32]) [%] | normalised response (CAL-85-1 [33]) [%] | normalised response (MDA-MB-468 [34]) [%] | normalised response (MDA-MB-231 [35]) [%] | normalised response (Hs578T [36]) [%]
1 | C[C@]12CC[C@@H]3c4ccc(OC(=O)N(CCCl)CCCl)cc4CC[C@H]3[C@@H]1CC[C@@H]2O [Estramustine] (100 nM) | 98.1 | 91.4 | 102 | 85.3 | 95.2 | 103 | 93 | 88.2 | 104 | 95.4 | 100 | 98.4 | 76.8 | 86.7 | 101 | 93.3 | 83.1 | 94.6 | 95.2 | 95.8 | 99.3 | 89.7 | 70.5 | 91.3 | 83.8 | 103 | 84.8 | 83.2 | 102 | 81 | 100 | 96.8 | 103 | 95.6 | 97.9 | – | –
2 | CC1(C)CNc2cc(NC(=O)c3cccnc3NCc3ccncc3)ccc21 [Motesanib] (100 nM) | 101 | 93.8 | 99.5 | 92.1 | 96.8 | 114 | 96.3 | 92.5 | 99.7 | 101 | 95.4 | 96.9 | 86.2 | 107 | 99.9 | 102 | 99.8 | 89.5 | 91.8 | 99 | 92.8 | 111 | 99.2 | 103 | 100 | 106 | 100 | 91.1 | 94.2 | 107 | 95.2 | 97.9 | 105 | 110 | 93 | 101 | –
3 | CC(=O)c1c(C)c2cnc(Nc3ccc(N4CCNCC4)cn3)nc2n(C2CCCC2)c1=O [Palbociclib] (100 nM) | 85.7 | 79.7 | 103 | 86.3 | 95.7 | 94.4 | 103 | 85.8 | 97.9 | 95.9 | 96.5 | 96.4 | 85.7 | 72.8 | 86.4 | 98 | 105 | 97.3 | 85 | 99.6 | 101 | 101 | 82 | 95.2 | – | 103 | 55.5 | 77 | 103 | 110 | 98.7 | 98.8 | 107 | 102 | – | 103 | 104
4 | CC[C@@H]1C(=O)OC[C@@H]1Cc1cncn1C [Pilocarpine] (400 nM) | 94.5 | 101 | 98.3 | 89.7 | 96.7 | 85.9 | 97.8 | 101 | 102 | 94.1 | 98.7 | 88.3 | 86 | 63.4 | 96.6 | 97.7 | 96.1 | 97 | 95.3 | 98.4 | 99.6 | 91 | 70.4 | 99.5 | 98.6 | 93.4 | 104 | 70 | 97.1 | 91.1 | 98.8 | 95.8 | 93.6 | 110 | 73.4 | 106 | –
5 | COc1cc(F)c(F)c(Nc2ccc(I)cc2F)c1NS(=O)(=O)C1(C[C@H](O)CO)CC1 [Refametinib] (100 nM) | 81 | 88.9 | 68.6 | 90.6 | 88 | 99.6 | 87.4 | 37.9 | 105 | 83.6 | 89.1 | 91.6 | 87.2 | 88.3 | 87.7 | 35.1 | 97.6 | 89.7 | 82.2 | 97.4 | 97.7 | 81.3 | 92.5 | 93.7 | 93.4 | 102 | 95.8 | – | 58.6 | 79.7 | 92.4 | 84 | 101 | 86.7 | – | – | 103
